Laboratory results: ChEMBL document CHEMBL3992506, “An in-tether sulfoxide chiral center influences the biophysical properties of the N-capped peptides” (Bioorg Med Chem, 2017)
Numbered stars: 1 amine (or outer) side, 2 acyl side, 3 side chain; on linkers, the order of the positions; unused ones are H or OH. Bridge positions count the residues as written; N and C are the ends. Square brackets hold non-standard residues; d marks the D form. Peptide text beside a SMILES is read from it. * marks the point of attachment. 5FAM = O=C1OC2(c3ccc(O)cc3Oc3cc(O)ccc32)c2ccc(C(=O)*)cc21; X1 = O=C(CN(CC[*:3])[*:1])[*:2]; Mpa = O=C(O)CCS

Key:
[1] = Stability assessed as trypsin (unknown origin)-mediated compound hydrolysis by measuring compound half life at 250 uM at 37 degC by LC-MS/MS method; type: ADME; settings: human
Estrogen receptor = molecular target: T1, Estrogen receptor (Homo sapiens, UniProt P03372); test: Binding affinity to recombinant human ER-alpha LBD (301 to 553 residues) expressed in Escherichia coli BL21(DE3) after 1 hr by fluorescence polarization assay
T1 sequence (P03372 whole entry): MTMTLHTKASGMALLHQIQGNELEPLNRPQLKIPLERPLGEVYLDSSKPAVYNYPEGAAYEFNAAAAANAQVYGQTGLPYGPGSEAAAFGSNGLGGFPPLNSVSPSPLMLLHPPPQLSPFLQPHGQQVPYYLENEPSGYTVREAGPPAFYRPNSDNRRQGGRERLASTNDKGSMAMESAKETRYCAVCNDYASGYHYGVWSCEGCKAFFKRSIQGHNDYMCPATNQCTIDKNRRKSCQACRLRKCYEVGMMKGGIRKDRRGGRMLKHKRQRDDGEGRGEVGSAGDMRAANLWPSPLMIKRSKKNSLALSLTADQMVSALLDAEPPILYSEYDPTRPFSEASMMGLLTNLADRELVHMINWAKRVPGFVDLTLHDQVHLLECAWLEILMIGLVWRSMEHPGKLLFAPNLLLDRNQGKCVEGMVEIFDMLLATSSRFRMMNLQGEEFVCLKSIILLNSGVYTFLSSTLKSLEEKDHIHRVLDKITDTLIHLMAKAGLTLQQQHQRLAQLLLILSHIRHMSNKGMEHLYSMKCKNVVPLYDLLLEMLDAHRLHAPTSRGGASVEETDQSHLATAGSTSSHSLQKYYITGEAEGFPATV

[2] = Drug uptake in HEK293T cells at 10 uM after 4 hrs by flow cytometry; type: ADME, cell-based; settings: human, hek-293t
[3] = Drug uptake in cytoplasm of HEK293T cells at 10 uM after 16 hrs by DAPI staining based confocal microscopic method; type: ADME, cell-based; settings: human

Row | Compound | t1/2 [1] [min] | Kd (Estrogen receptor) [nM] | other results
1 | CC[C@H](C)[C@H](NC(=O)CNC(=O)[C@H](CCCCNC(=O)c1ccc2c(c1)C(=O)OC21c2ccc(O)cc2Oc2cc(O)ccc21)NC(=O)[C@@H](N)CCCNC(=N)N)C(=O)N[C@@H](CC(C)C)C(=O)N[C@@H](CCCNC(=N)N)C(=O)N[C@@H](CCCNC(=N)N)C(=O)N[C@@H](CC(C)C)C(=O)N[C@@H](CC(C)C)C(=O)N[C@@H](CCC(N)=O)C(=O)NCC(=O)N[C@@H](Cc1c[nH]c2ccccc12)C(=O)O (H-RK(5FAM)GILRRLLQGW-OH) |  | 162 | 
2 | CC[C@H](C)[C@H](NC(=O)CN1CC[S+]([O-])CCC(=O)N[C@@H](CCCNC(=N)N)C(=O)N[C@@H](CCCCNC(=O)c2ccc3c(c2)C(=O)OC32c3ccc(O)cc3Oc3cc(O)ccc32)C1=O)C(=O)N[C@@H](CC(C)C)C(=O)N[C@@H](CCCNC(=N)N)C(=O)N[C@@H](CCCNC(=N)N)C(=O)N[C@@H](CC(C)C)C(=O)N[C@@H](CC(C)C)C(=O)N[C@@H](CCC(N)=O)C(=O)NCC(=O)N[C@@H](Cc1c[nH]c2ccccc12)C(N)=O (stereo in doubt; form 1) |  | 183 | 
3 | CC[C@H](C)[C@H](NC(=O)CN1CC[S+]([O-])CCC(=O)N[C@@H](CCCNC(=N)N)C(=O)N[C@@H](CCCCNC(=O)c2ccc3c(c2)C(=O)OC32c3ccc(O)cc3Oc3cc(O)ccc32)C1=O)C(=O)N[C@@H](CC(C)C)C(=O)N[C@@H](CCCNC(=N)N)C(=O)N[C@@H](CCCNC(=N)N)C(=O)N[C@@H](CC(C)C)C(=O)N[C@@H](CC(C)C)C(=O)N[C@@H](CCC(N)=O)C(=O)NCC(=O)N[C@@H](Cc1c[nH]c2ccccc12)C(N)=O (stereo in doubt; form 2) |  | 386 | Drug uptake [2]: Active; Drug uptake [3]: Active
4 | CC[C@H](C)[C@H](NC(=O)CN1CCSCCC(=O)N[C@@H](CCCNC(=N)N)C(=O)N[C@@H](CCCCNC(=O)c2ccc3c(c2)C(=O)OC32c3ccc(O)cc3Oc3cc(O)ccc32)C1=O)C(=O)N[C@@H](CC(C)C)C(=O)N[C@@H](CCCNC(=N)N)C(=O)N[C@@H](CCCNC(=N)N)C(=O)N[C@@H](CC(C)C)C(=O)N[C@@H](CC(C)C)C(=O)N[C@@H](CCC(N)=O)C(=O)NCC(=O)N[C@@H](Cc1c[nH]c2ccccc12)C(N)=O ([Mpa]RK(5FAM)[X1]ILRRLLQGW-NH2; thioether 1-4) |  | 212 | 

Now from value to compound, other results behind:

Row | t1/2 [1] [min] | Kd (Estrogen receptor) [nM] | Compound | other results
5 | 5.9 |  | CC[C@H](C)[C@H](NC(=O)CN1CC[S+]([O-])CCC(=O)N[C@@H](CCCNC(=N)N)C(=O)N[C@@H](CCCCN)C1=O)C(=O)N[C@@H](CC(C)C)C(=O)N[C@@H](CCCNC(=N)N)C(=O)N[C@@H](CCCNC(=N)N)C(=O)N[C@@H](CC(C)C)C(=O)N[C@@H](CC(C)C)C(=O)N[C@@H](CCC(N)=O)C(=O)NCC(=O)N[C@@H](Cc1c[nH]c2ccccc12)C(N)=O (stereo in doubt) | 
6 | 2.1 |  | CC[C@H](C)[C@H](NC(=O)CN1CC[S+]([O-])CCC(=O)N[C@@H](CCCNC(=N)N)C(=O)N[C@@H](CCCCN)C1=O)C(=O)N[C@@H](CC(C)C)C(=O)N[C@@H](CCCNC(=N)N)C(=O)N[C@@H](CCCNC(=N)N)C(=O)N[C@@H](CC(C)C)C(=O)N[C@@H](CC(C)C)C(=O)N[C@@H](CCC(N)=O)C(=O)NCC(=O)N[C@@H](Cc1c[nH]c2ccccc12)C(N)=O (single isomer, unassigned; isomer 2) | 
